Consider 26 molecules from publication PMC9520563 (ACS Omega, 2022).

Test [1] relates to MDA-MB-231. Kind of test: cells. To be noted: Homo sapiens, MDA-MB-231, 72 h, read-out: IC50 MDA-MB-231.
Test [2] deals with HepG2. Kind of test: cells. To be noted: Homo sapiens, HepG2, 72 h, read-out: IC50 HepG2.
The test system of test [3] is MDA-MB-231. To be noted: IC50 on LLC-PK1 divided by IC50 on MDA-MB-231.
Test [4] has as its system HepG2. Conditions: IC50 on LLC-PK1 divided by IC50 on HepG2.
The next test deals with porcine brain tubulin (Sus scrofa, UniProt P02550+P02554). Nature of the test: biochemical. To be noted: read-out: % inhibition of tubulin polymerization.
Chain of porcine brain tubulin (P02550 whole entry): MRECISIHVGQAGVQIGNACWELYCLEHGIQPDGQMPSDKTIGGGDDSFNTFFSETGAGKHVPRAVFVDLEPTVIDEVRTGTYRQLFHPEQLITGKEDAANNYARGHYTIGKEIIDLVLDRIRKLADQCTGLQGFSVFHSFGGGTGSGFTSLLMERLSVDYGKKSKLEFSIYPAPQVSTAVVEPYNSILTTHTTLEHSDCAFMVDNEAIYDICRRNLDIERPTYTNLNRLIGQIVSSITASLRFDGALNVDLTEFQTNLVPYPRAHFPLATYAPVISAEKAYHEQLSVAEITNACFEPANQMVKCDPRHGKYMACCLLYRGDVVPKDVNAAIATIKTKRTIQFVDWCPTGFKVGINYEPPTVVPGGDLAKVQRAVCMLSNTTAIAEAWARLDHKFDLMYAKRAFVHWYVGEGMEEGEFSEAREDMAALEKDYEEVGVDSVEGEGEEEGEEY
Chain of porcine brain tubulin (P02554 whole entry): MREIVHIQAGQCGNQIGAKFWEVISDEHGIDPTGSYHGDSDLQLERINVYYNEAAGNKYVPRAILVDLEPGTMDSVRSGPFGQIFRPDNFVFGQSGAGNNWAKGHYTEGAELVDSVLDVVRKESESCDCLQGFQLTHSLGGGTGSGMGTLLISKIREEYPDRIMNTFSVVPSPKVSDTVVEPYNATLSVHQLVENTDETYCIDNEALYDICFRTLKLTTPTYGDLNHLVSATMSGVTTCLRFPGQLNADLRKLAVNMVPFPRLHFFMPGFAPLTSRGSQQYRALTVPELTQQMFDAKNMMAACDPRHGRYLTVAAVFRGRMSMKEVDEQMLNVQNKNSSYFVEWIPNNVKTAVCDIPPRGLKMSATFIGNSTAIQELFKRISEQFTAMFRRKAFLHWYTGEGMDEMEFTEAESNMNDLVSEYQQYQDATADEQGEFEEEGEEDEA

Molecules are shown by their SMILES.

As to `COc1cc(/C=C/C(=O)/C=C/c2c(C)nn(-c3cccc([N+](=O)[O-])c3)c2Cl)ccc1O` [Compound 8c, (1E,4E)-1-[5-Chloro-3-methyl-1-(3-nitrophenyl)-1H-pyrazol-4-yl]-5-(4-hydroxy-3-methoxyphenyl)penta-1,4-dien-3-one], the IC50 (as a rule, the point on the concentration scale where inhibition reaches its midpoint) in the test on MDA-MB-231 [1] amounted to 7 ± 0.02 µM; in the test with HepG2 [2], 16.6 ± 0.45 µM.

On to `COc1ccc(/C=C/C(=O)/C=C/c2cn(-c3ccccc3)nc2-c2ccccc2)cc1O` [Compound 10d, (1E,4E)-1-(1,3-Diphenyl-1H-pyrazol-4-yl)-5-(3-hydroxy-4-methoxyphenyl)penta-1,4-dien-3-one], for which the IC50 is 3.29 ± 0.18 µM with MDA-MB-231 [1] and 6.74 ± 0.26 µM with HepG2 [2]. Also, the “SI MDA-MB-231” value in the test on MDA-MB-231 [3] is 2.55. In addition, the “SI HepG2” value in the test on HepG2 [4] is 1.25. Moreover, on porcine brain tubulin, the inhibition (commonly the share of the control response that was lost under treatment) at 20 µM was determined as 35.5 ± 0.51%.

For the molecule `COc1ccc(/C=C/C(=O)/C=C/c2c(C)nn(-c3ccccc3)c2Cl)cc1O` [Compound 7d, (1E,4E)-1-(5-Chloro-3-methyl-1-phenyl-1H-pyrazol-4-yl)-5-(3-hydroxy-4-methoxyphenyl)penta-1,4-dien-3-one], the figures for the IC50 with MDA-MB-231 [1] and in the test with HepG2 [2] were 5.61 ± 0.24 µM and 14.2 ± 0.77 µM, respectively. For the same molecule, the “SI HepG2” value with HepG2 [4] is recorded as 1.14. Also, the inhibition at 20 µM on porcine brain tubulin came out at 52 ± 0.65%.

On to `COc1cc(/C=C/C(=O)/C=C/c2c(C)nn(-c3cccc([N+](=O)[O-])c3)c2Cl)cc(OC)c1O` [Compound 8h, (1E,4E)-1-(5-Chloro-3-methyl-1-(3-nitrophenyl)-1H-pyrazol-4-yl)-5-(4-hydroxy-3,5-dimethoxyphenyl)penta-1,4-dien-3-one], for which the IC50 with MDA-MB-231 [1] is 2.56 ± 0.01 µM; in the test on HepG2 [2] it was 6.69 ± 0.04 µM. Further, the “SI MDA-MB-231” value in the test on MDA-MB-231 [3] worked out at 6.01. Moreover, in the test with HepG2 [4], the “SI HepG2” value came out at 2.30. Besides, the inhibition at 20 µM on porcine brain tubulin came out at 22.1 ± 0.84%.

With `CCOc1cc(/C=C/C(=O)/C=C/c2c(C)nn(-c3ccccc3)c2Cl)ccc1O` [Compound 7e, (1E,4E)-1-(5-Chloro-3-methyl-1-phenyl-1H-pyrazol-4-yl)-5-(4-hydroxy-3-ethoxyphenyl)penta-1,4-dien-3-one], the IC50 in the test on MDA-MB-231 [1] stood at 13.5 ± 1.43 µM; with HepG2 [2], 13.2 ± 1.41 µM.

On to `COc1ccc(/C=C/C(=O)/C=C/c2cn(-c3ccccc3)nc2-c2ccccc2)cc1OC` [Compound 10a, (1E,4E)-1-(3,4-Dimethoxyphenyl)-5-(1,3-diphenyl-1H-pyrazol-4-yl)penta-1,4-dien-3-one], for which the IC50 in the test with MDA-MB-231 [1] was 23.3 ± 2.37 µM; with HepG2 [2], > 25 µM.

For `CCOc1cc(/C=C/C(=O)/C=C/c2c(C)nn(-c3cccc([N+](=O)[O-])c3)c2Cl)ccc1O` [Compound 8e, (1E,4E)-1-[5-Chloro-3-methyl-1-(3-nitrophenyl)-1H-pyrazol-4-yl]-5-(4-hydroxy-3-ethoxyphenyl)penta-1,4-dien-3-one], the IC50 in the test on MDA-MB-231 [1] is 15.1 ± 0.2 µM; in the test on HepG2 [2], 11.18 ± 0.04 µM.

On to `Cc1nn(-c2cccc([N+](=O)[O-])c2)c(Cl)c1/C=C/C(=O)/C=C/c1ccc2c(c1)OCO2` [Compound 8f, (1E,4E)-1-(Benzo[d][1,3]dioxol-5-yl)-5-(5-chloro-3-methyl-1-(3-nitrophenyl)-1H-pyrazol-4-yl)penta-1,4-dien-3-one], for which the IC50 in the test with MDA-MB-231 [1] and with HepG2 [2] was > 25 µM each time.

Take `COc1ccc(/C=C/C(=O)/C=C/c2c(C)nn(-c3cccc([N+](=O)[O-])c3)c2Cl)c(OC)c1` [Compound 8b, (1E,4E)-1-[5-Chloro-3-methyl-1-(3-nitrophenyl)-1H-pyrazol-4-yl]-5-(2,4-dimethoxyphenyl)penta-1,4-dien-3-one]: the IC50 in the test with MDA-MB-231 [1] was 12.3 ± 1.29 µM; in the test on HepG2 [2], 18.3 ± 3.14 µM.

With `CC(=O)O[C@H]1C(=O)[C@@]2(C)[C@H]([C@H](OC(=O)c3ccccc3)[C@]3(O)C[C@H](OC(=O)[C@H](O)[C@@H](NC(=O)c4ccccc4)c4ccccc4)C(C)=C1C3(C)C)[C@]1(OC(C)=O)CO[C@@H]1C[C@@H]2O` [paclitaxel, reference compound], the IC50 came to 8.79 ± 0.96 µM in the test on MDA-MB-231 [1] and 12 ± 0.56 µM with HepG2 [2].

For `COc1ccc(/C=C/C(=O)/C=C/c2c(C)nn(-c3ccccc3)c2Cl)c(OC)c1` [Compound 7b, (1E,4E)-1-(5-Chloro-3-methyl-1-phenyl-1H-pyrazol-4-yl)-5-(2,4-dimethoxyphenyl)penta-1,4-dien-3-one], the IC50 was 13.3 ± 0.39 µM in the test on MDA-MB-231 [1] and > 25 µM with HepG2 [2].

On to `O=C(/C=C/c1ccc2c(c1)OCO2)/C=C/c1cn(-c2ccccc2)nc1-c1ccccc1` [Compound 10f, (1E,4E)-1-(Benzo[d][1,3]dioxol-5-yl)-5-(1,3-diphenyl-1H-pyrazol-4-yl)penta-1,4-dien-3-one], for which the IC50 in the test on MDA-MB-231 [1] was 22 ± 3.24 µM; in the test with HepG2 [2] it was > 25 µM.

On to `COc1cc(/C=C/C(=O)/C=C/c2c(C)nn(-c3ccccc3)c2Cl)ccc1O` [Compound 7c, (1E,4E)-1-(5-Chloro-3-methyl-1-phenyl-1H-pyrazol-4-yl)-5-(4-hydroxy-3-methoxyphenyl)penta-1,4-dien-3-one], for which the IC50 in the test on MDA-MB-231 [1] came to 7.71 ± 0.32 µM; in the test on HepG2 [2] it was 8 ± 0.87 µM. In addition, the “SI MDA-MB-231” value with MDA-MB-231 [3] is 1.24. The “SI HepG2” value in the test with HepG2 [4] is 1.19.

On to `COc1cc(/C=C/C(=O)/C=C/c2cn(-c3ccccc3)nc2-c2ccccc2)cc(OC)c1OC` [Compound 10g, (1E,4E)-1-(1,3-Diphenyl-1H-pyrazol-4-yl)-5-(3,4,5-trimethoxyphenyl)penta-1,4-dien-3-one], for which the IC50 with MDA-MB-231 [1] is 14.3 ± 0.37 µM; in the test with HepG2 [2], > 25 µM.

In the case of `COc1ccc(/C=C/C(=O)/C=C/c2c(C)nn(-c3cccc([N+](=O)[O-])c3)c2Cl)cc1O` [Compound 8d, (1E,4E)-1-[5-Chloro-3-methyl-1-(3-nitrophenyl)-1H-pyrazol-4-yl]-5-(3-hydroxy-4-methoxyphenyl)penta-1,4-dien-3-one], the IC50 with MDA-MB-231 [1] is 7.25 ± 0.08 µM; in the test with HepG2 [2], 25.3 ± 0.3 µM.

`COc1cc(/C=C/C(=O)CC(=O)/C=C/c2ccc(O)c(OC)c2)ccc1O` [curcumin, reference compound]: the IC50 stood at 20.7 ± 0.8 µM with MDA-MB-231 [1] and 23.4 ± 7.27 µM in the test on HepG2 [2]. Further, in the test on MDA-MB-231 [3], the “SI MDA-MB-231” value stood at 1.72. Moreover, the “SI HepG2” value in the test on HepG2 [4] was 1.51.

Turning to `Cc1nn(-c2ccccc2)c(Cl)c1/C=C/C(=O)/C=C/c1ccc2c(c1)OCO2` [Compound 7f, (1E,4E)-1-(Benzo[d][1,3]dioxol-5-yl)-5-(5-chloro-3-methyl-1-phenyl-1H-pyrazol-4-yl)penta-1,4-dien-3-one], the IC50 is 16.67 ± 0.07 µM in the test on MDA-MB-231 [1] and > 25 µM in the test with HepG2 [2].

As for `COc1ccc(/C=C/C(=O)/C=C/c2cn(-c3ccccc3)nc2-c2ccccc2)c(OC)c1` [Compound 10b, (1E,4E)-1-(2,4-Dimethoxyphenyl)-5-(1,3-diphenyl-1H-pyrazol-4-yl)penta-1,4-dien-3-one], the IC50 in the test with MDA-MB-231 [1] and with HepG2 [2] was > 25 µM each time.

Regarding `COc1cc(/C=C/C(=O)/C=C/c2c(C)nn(-c3ccccc3)c2Cl)cc(OC)c1O` [Compound 7h, (1E,4E)-1-(5-Chloro-3-methyl-1-phenyl-1H-pyrazol-4-yl)-5-(4-hydroxy-3,5-dimethoxyphenyl)penta-1,4-dien-3-one], the IC50 came out at 3.64 ± 0.02 µM with MDA-MB-231 [1] and 6.03 ± 0.06 µM with HepG2 [2]. In the test with HepG2 [4], the “SI HepG2” value is reported as 2.14. The inhibition at 20 µM on porcine brain tubulin worked out at 45.3 ± 0.81%.

`COc1cc(/C=C/C(=O)/C=C/c2c(C)nn(-c3cccc([N+](=O)[O-])c3)c2Cl)cc(OC)c1OC` [Compound 8g, (1E,4E)-1-(5-Chloro-3-methyl-1-(3-nitrophenyl)-1H-pyrazol-4-yl)-5-(3,4,5-trimethoxyphenyl)penta-1,4-dien-3-one]: the IC50 in the test on MDA-MB-231 [1] was 2.43 ± 0.04 µM; with HepG2 [2], 14.65 ± 0.1 µM. Also, the “SI MDA-MB-231” value in the test with MDA-MB-231 [3] came to 2.44. For the same molecule, in the test with HepG2 [4], the “SI HepG2” value was found to be 0.40.

In the case of `COc1cc(/C=C/C(=O)/C=C/c2c(C)nn(-c3ccccc3)c2Cl)cc(OC)c1OC` [Compound 7g, (1E,4E)-1-(5-Chloro-3-methyl-1-phenyl-1H-pyrazol-4-yl)-5-(3,4,5-trimethoxyphenyl)penta-1,4-dien-3-one], the 50% inhibitory concentration (IC50) turned out to be 7.84 ± 0.07 µM in the test with MDA-MB-231 [1] and 13.03 ± 0.12 µM with HepG2 [2].

For `COc1cc(/C=C/C(=O)/C=C/c2cn(-c3ccccc3)nc2-c2ccccc2)cc(OC)c1O` [Compound 10h, (1E,4E)-1-(1,3-Diphenyl-1H-pyrazol-4-yl)-5-(4-hydroxy-3,5-dimethoxyphenyl)penta-1,4-dien-3-one], the IC50 in the test with MDA-MB-231 [1] amounted to 4.06 ± 0.02 µM; with HepG2 [2] it was 4.98 ± 0.09 µM. The “SI MDA-MB-231” value in the test with MDA-MB-231 [3] was 2.51. For the same molecule, the “SI HepG2” value in the test on HepG2 [4] was 2.05. For the same molecule, on porcine brain tubulin, the inhibition at 20 µM came to 25.73 ± 0.15%.

With `COc1ccc(/C=C/C(=O)/C=C/c2c(C)nn(-c3cccc([N+](=O)[O-])c3)c2Cl)cc1OC` [Compound 8a, (1E,4E)-1-[5-Chloro-3-methyl-1-(3-nitrophenyl)-1H-pyrazol-4-yl]-5-(3,4-dimethoxyphenyl)penta-1,4-dien-3-one], the IC50 is 6.89 ± 0.31 µM in the test on MDA-MB-231 [1] and 7.19 ± 0.37 µM with HepG2 [2]. The “SI MDA-MB-231” value in the test with MDA-MB-231 [3] is recorded as 3.05. In the test with HepG2 [4], the “SI HepG2” value stood at 2.93. For the same molecule, the inhibition at 20 µM at porcine brain tubulin is 25.9 ± 0.33%.

For the molecule `CCOc1cc(/C=C/C(=O)/C=C/c2cn(-c3ccccc3)nc2-c2ccccc2)ccc1O` [Compound 10e, (1E,4E)-1-(1,3-Diphenyl-1H-pyrazol-4-yl)-5-(4-hydroxy-3-ethoxyphenyl)penta-1,4-dien-3-one], the IC50 was determined as 6.14 ± 0.33 µM with MDA-MB-231 [1] and 13.5 ± 1.53 µM in the test with HepG2 [2].

On to `COc1ccc(/C=C/C(=O)/C=C/c2c(C)nn(-c3ccccc3)c2Cl)cc1OC` [Compound 7a, (1E,4E)-1-(5-Chloro-3-methyl-1-phenyl-1H-pyrazol-4-yl)-5-(3,4-dimethoxyphenyl)penta-1,4-dien-3-one], for which the IC50 in the test on MDA-MB-231 [1] stood at 6.6 ± 0.16 µM; in the test with HepG2 [2], 11.6 ± 1.2 µM.

In the case of `COc1cc(/C=C/C(=O)/C=C/c2cn(-c3ccccc3)nc2-c2ccccc2)ccc1O` [Compound 10c, (1E,4E)-1-(1,3-Diphenyl-1H-pyrazol-4-yl)-5-(4-hydroxy-3-methoxyphenyl)penta-1,4-dien-3-one], the IC50 is 5.5 ± 0.22 µM in the test on MDA-MB-231 [1] and 10.6 ± 1.38 µM in the test with HepG2 [2]. Besides, the “SI HepG2” value with HepG2 [4] is given as 1.49. Further, the inhibition at 20 µM on porcine brain tubulin is 40.76 ± 0.33%.
